From patent US20230322761A1, “DEGRADATION OF BRUTON'S TYROSINE KINASE (BTK) BY CONJUGATION OF BTK INHIBITORS WITH E3 LIGASE LIGAND AND METHODS OF USE” (BEIGENE, LTD., priority 2020, published 2023) come the findings set out here.

This test concerns the target T1, BTK (Homo sapiens, UniProt Q06187).
T1 construct: endogenous in cells; host or cells: TMD-8 cells
The test can be described thus: BTK degradation in TMD-8 cells, HTRF assay after 6 h treatment. The class given is cell-based. The settings on record: IC50 (DC50) of BTK degradation. The gist of the method: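 TMD-8 cells treated for 6 h with 8 compound doses in 6-fold dilution steps from a 1 mM 500× DMSO stock (0.2% DMSO), then lysed 30 min at room temperature. BTK in lysate detected by HTRF (665/620 nm) after overnight antibody incubation; DC50 from four-parameter curve fit.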

T1 sequence (Q06187 whole entry): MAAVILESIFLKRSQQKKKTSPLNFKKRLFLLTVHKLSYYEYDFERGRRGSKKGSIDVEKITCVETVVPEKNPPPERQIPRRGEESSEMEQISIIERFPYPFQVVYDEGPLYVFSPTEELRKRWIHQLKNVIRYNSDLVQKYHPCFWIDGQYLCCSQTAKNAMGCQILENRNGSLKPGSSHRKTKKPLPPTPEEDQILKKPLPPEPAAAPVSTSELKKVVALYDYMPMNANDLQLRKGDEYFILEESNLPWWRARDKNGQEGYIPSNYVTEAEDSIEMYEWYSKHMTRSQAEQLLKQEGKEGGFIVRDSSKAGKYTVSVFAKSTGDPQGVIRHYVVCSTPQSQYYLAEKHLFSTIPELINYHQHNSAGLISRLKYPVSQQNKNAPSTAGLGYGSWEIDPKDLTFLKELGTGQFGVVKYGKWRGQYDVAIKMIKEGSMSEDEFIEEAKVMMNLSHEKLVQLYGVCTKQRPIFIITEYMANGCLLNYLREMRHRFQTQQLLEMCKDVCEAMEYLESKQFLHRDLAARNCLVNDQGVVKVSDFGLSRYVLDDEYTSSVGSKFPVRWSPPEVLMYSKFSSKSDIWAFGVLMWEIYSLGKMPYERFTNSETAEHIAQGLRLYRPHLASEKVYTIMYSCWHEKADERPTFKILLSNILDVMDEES

`Cc1cc(-c2n[nH]c3ncc(-c4ccc(N5CCN(CC6CCN(c7ccc(N8CCC(=O)NC8=O)cc7)CC6)CC5)cc4)cc23)ccc1[C@@H](C)NC(=O)c1nc(C2(C)CC2)no1` [Example 213, (R)—N-(1-(4-(5-(4-(4-((1-(4-(2,4-dioxotetrahydropyrimidin-1(2H)-yl)phenyl)piperidin-4-yl)methyl)piperazin-1-yl)phenyl)-1H-pyrazolo[3,4-b]pyridin-3-yl)-2-methylphenyl)ethyl)-3-(1-methylcyclopropyl)-1,2,4-oxadiazole-5-carboxamide] came in with a DC50 of 5.04 nM. In turn, `Cc1cc(-c2n[nH]c3ncc(-c4ccc(N5CCN(C6CC(c7ccc(C8CCC(=O)NC8=O)cc7)C6)CC5)cc4)cc23)ccc1[C@@H](C)NC(=O)c1noc(C(C)(C)C)n1` (stereo partly drawn) [Example 214, 5-(tert-butyl)-N-((1R)-1-(4-(5-(4-(4-((1s,3s)-3-(4-(2,6-dioxopiperidin-3-yl)phenyl)cyclobutyl)piperazin-1-yl)phenyl)-1H-pyrazolo[3,4-b]pyridin-3-yl)-2-methylphenyl)ethyl)-1,2,4-oxadiazole-3-carboxamide] displayed a DC50 of 1.3 nM.

`Cc1cc(-c2n[nH]c3ncc(-c4ccc(N5CCN(Cc6ccc(C7CCC(=O)NC7=O)c(F)c6)CC5)cc4)cc23)ccc1[C@@H](C)NC(=O)c1nc(C(C)(C)C)no1` (stereo partly drawn) [Example 215, 3-(tert-butyl)-N-((1R)-1-(4-(5-(4-(4-(4-(2,6-dioxopiperidin-3-yl)-3-fluorobenzyl)piperazin-1-yl)phenyl)-1H-pyrazolo[3,4-b]pyridin-3-yl)-2-methylphenyl)ethyl)-1,2,4-oxadiazole-5-carboxamide] yielded a DC50 of 11.8 nM. Next, `Cc1cc(-c2n[nH]c3ncc(-c4ccc(N5CCN(C6CCC(c7ccc(C8CCC(=O)NC8=O)c(F)c7)C6)CC5)cc4)cc23)ccc1[C@@H](C)NC(=O)c1nc(C(C)(C)C)no1` (stereo partly drawn) [Example 216, 3-(tert-butyl)-N-((1R)-1-(4-(5-(4-(4-(3-(4-(2,6-dioxopiperidin-3-yl)-3-fluorophenyl)cyclopentyl)piperazin-1-yl)phenyl)-1H-pyrazolo[3,4-b]pyridin-3-yl)-2-methylphenyl)ethyl)-1,2,4-oxadiazole-5-carboxamide]: 10.5 nM; `Cc1cc(-c2n[nH]c3ncc(-c4ccc(N5CCN(CCc6ccc(N7CC(=O)NC7=O)cc6)CC5)cc4)cc23)ccc1[C@@H](C)NC(=O)c1nc(C(C)(C)C)no1` [Example 217, (R)-3-(tert-butyl)-N-(1-(4-(5-(4-(4-(4-(2,4-dioxoimidazolidin-1-yl)phenethyl)piperazin-1-yl)phenyl)-1H-pyrazolo[3,4-b]pyridin-3-yl)-2-methylphenyl)ethyl)-1,2,4-oxadiazole-5-carboxamide]: 1960 nM; `Cc1cc(-c2n[nH]c3ncc(-c4ccc(N5CCN(CC6CCN(c7ccc(N8CC(=O)NC8=O)cc7)CC6)CC5)cc4)cc23)ccc1[C@@H](C)NC(=O)c1nc(C(C)(C)C)no1` [Example 218, (R)-3-(tert-butyl)-N-(1-(4-(5-(4-(4-((1-(4-(2,4-dioxoimidazolidin-1-yl)phenyl)piperidin-4-yl)methyl)piperazin-1-yl)phenyl)-1H-pyrazolo[3,4-b]pyridin-3-yl)-2-methylphenyl)ethyl)-1,2,4-oxadiazole-5-carboxamide]: 19 nM.

For `Cc1c(CNC(=O)c2nc(C(C)(C)C)no2)ccc(-c2n[nH]c3ncc(-c4ccc(C5CCN(CC6CCN(c7ccc(N8CCC(=O)NC8=O)cc7)CC6)CC5)cc4)cc23)c1F` [Example 219, 3-(tert-butyl)-N-(4-(5-(4-(1-((1-(4-(2,4-dioxotetrahydropyrimidin-1(2H)-yl)phenyl)piperidin-4-yl)methyl)piperidin-4-yl)phenyl)-1H-pyrazolo[3,4-b]pyridin-3-yl)-3-fluoro-2-methylbenzyl)-1,2,4-oxadiazole-5-carboxamide], the DC50 came out at 2.23 nM. `Cc1cc(-c2n[nH]c3ncc(-c4ccc(C5CCN(CC6CCN(c7ccc(N8CCC(=O)NC8=O)cc7)CC6)CC5)cc4)cc23)c(F)cc1CNC(=O)c1nc(C(C)(C)C)no1` [Example 220, 3-(tert-butyl)-N-(4-(5-(4-(1-((1-(4-(2,4-dioxotetrahydropyrimidin-1(2H)-yl)phenyl)piperidin-4-yl)methyl)piperidin-4-yl)phenyl)-1H-pyrazolo[3,4-b]pyridin-3-yl)-5-fluoro-2-methylbenzyl)-1,2,4-oxadiazole-5-carboxamide] registered a DC50 of 3.85 nM.

On to `Cc1c(CNC(=O)c2noc(C(C)(C)C)n2)ccc(-c2n[nH]c3ncc(-c4ccc(C5CCN(CC6CCN(c7ccc(N8CCC(=O)NC8=O)cc7)CC6)CC5)cc4)cc23)c1F` [Example 221, 5-(tert-butyl)-N-(4-(5-(4-(1-((1-(4-(2,4-dioxotetrahydropyrimidin-1(2H)-yl)phenyl)piperidin-4-yl)methyl)piperidin-4-yl)phenyl)-1H-pyrazolo[3,4-b]pyridin-3-yl)-3-fluoro-2-methylbenzyl)-1,2,4-oxadiazole-3-carboxamide], for which half-maximal degradation (DC50) was put at 1.12 nM. `Cc1cc(-c2n[nH]c3ncc(-c4ccc(C5CCN(CC6CCN(c7ccc(N8CCC(=O)NC8=O)cc7)CC6)CC5)cc4)cc23)c(F)cc1CNC(=O)c1noc(C(C)(C)C)n1` [Example 222, 5-(tert-butyl)-N-(4-(5-(4-(1-((1-(4-(2,4-dioxotetrahydropyrimidin-1(2H)-yl)phenyl)piperidin-4-yl)methyl)piperidin-4-yl)phenyl)-1H-pyrazolo[3,4-b]pyridin-3-yl)-5-fluoro-2-methylbenzyl)-1,2,4-oxadiazole-3-carboxamide] registered a DC50 of 16.1 nM. Next, `Cc1cc(-c2n[nH]c3ncc(-c4ccc(N5CCN(C6CC(c7ccc([C@H]8CCC(=O)NC8=O)cc7)C6)CC5)cc4)cc23)ccc1[C@@H](C)NC(=O)c1noc(C(C)(C)C)n1` (stereo partly drawn) [Example 223, 5-(tert-butyl)-N—((R)-1-(4-(5-(4-(4-((1S,3r)-3-(4-((S)-2,6-dioxopiperidin-3-yl)phenyl)cyclobutyl)piperazin-1-yl)phenyl)-1H-pyrazolo[3,4-b]pyridin-3-yl)-2-methylphenyl)ethyl)-1,2,4-oxadiazole-3-carboxamide]: 1.56 nM. The result for `Cc1cc(-c2n[nH]c3ncc(-c4ccc(N5CCN(C6CC(c7ccc([C@H]8CCC(=O)NC8=O)cc7)C6)CC5)cc4)cc23)ccc1[C@@H](C)NC(=O)c1noc(C(C)(C)C)n1` (stereo partly drawn) [Example 224, 5-(tert-butyl)-N—((R)-1-(4-(5-(4-(4-((1S,3r)-3-(4-((R)-2,6-dioxopiperidin-3-yl)phenyl)cyclobutyl)piperazin-1-yl)phenyl)-1H-pyrazolo[3,4-b]pyridin-3-yl)-2-methylphenyl)ethyl)-1,2,4-oxadiazole-3-carboxamide] reads 6.16 nM. Next, `Cc1cc(-c2n[nH]c3ncc(-c4ccc(N5CCN(CC6CCN(c7ccc(N8CCC(=O)NC8=O)cc7)CC6)CC5)cc4)cc23)ccc1[C@@H](C)NC(=O)c1nnc(C(C)(C)C)o1` [Example 225, (R)-5-(tert-butyl)-N-(1-(4-(5-(4-(4-((1-(4-(2,4-dioxotetrahydropyrimidin-1(2H)-yl)phenyl)piperidin-4-yl)methyl)piperazin-1-yl)phenyl)-1H-pyrazolo[3,4-b]pyridin-3-yl)-2-methylphenyl)ethyl)-1,3,4-oxadiazole-2-carboxamide]: 9.45 nM; `Cc1cc(-c2n[nH]c3ncc(-c4ccc(N5CCN(CCOc6cccc7c6C(=O)N([C@@H]6CCC(=O)NC6=O)C7)CC5)cc4)cc23)ccc1[C@@H](C)NC(=O)c1nc(C(C)(C)C)no1` [Example 226, 3-(tert-butyl)-N—((R)-1-(4-(5-(4-(4-(2-((2-((R)-2,6-dioxopiperidin-3-yl)-3-oxoisoindolin-4-yl)oxy)ethyl)piperazin-1-yl)phenyl)-1H-pyrazolo[3,4-b]pyridin-3-yl)-2-methylphenyl)ethyl)-1,2,4-oxadiazole-5-carboxamide]: 3.04 nM; `Cc1cc(-c2n[nH]c3ncc(-c4ccc(C5CCN(CCc6ccc(C7CCC(=O)NC7=O)cc6)CC5)cc4)cc23)ccc1[C@@H](C)NC(=O)c1noc(C(C)(C)C)n1` (stereo partly drawn) [Example 227, 5-(tert-butyl)-N-((1R)-1-(4-(5-(4-(1-(4-(2,6-dioxopiperidin-3-yl)phenethyl)piperidin-4-yl)phenyl)-1H-pyrazolo[3,4-b]pyridin-3-yl)-2-methylphenyl)ethyl)-1,2,4-oxadiazole-3-carboxamide]: 3.93 nM. In turn, `Cc1cc(-c2n[nH]c3ncc(-c4ccc(N5CCN(CC6CCN(c7ccc(N8CCC(=O)NC8=O)c(C)c7)CC6)CC5)nc4)cc23)ccc1CNC(=O)c1nc(C(C)(C)C)no1` [Example 228, 3-(tert-butyl)-N-(4-(5-(6-(4-((1-(4-(2,4-dioxotetrahydropyrimidin-1(2H)-yl)-3-methylphenyl)piperidin-4-yl)methyl)piperazin-1-yl)pyridin-3-yl)-1H-pyrazolo[3,4-b]pyridin-3-yl)-2-methylbenzyl)-1,2,4-oxadiazole-5-carboxamide] came in with a DC50 of 2.02 nM. The compound `Cc1cc(-c2n[nH]c3ncc(-c4ccc(N5CCN(CCc6ccc(C7CCC(=O)NC7=O)cn6)CC5)cc4)cc23)ccc1CNC(=O)c1noc(C(C)(C)C)n1` (centres unmarked) [Example 229, 5-(tert-butyl)-N-(4-(5-(4-(4-(2-(5-(2,6-dioxopiperidin-3-yl)pyridin-2-yl)ethyl)piperazin-1-yl)phenyl)-1H-pyrazolo[3,4-b]pyridin-3-yl)-2-methylbenzyl)-1,2,4-oxadiazole-3-carboxamide] returned a DC50 of 0.427 nM.
